Source: US9902716B2, “Fluorinated benzofuranyl-pyrimidine derivatives containing a sulfone group” (Bayer Pharma Aktiengesellschaft, priority 2014, dated 2018)

What was measured:
B16F10 cells = test: Proliferation assay B16F10 (Method 3, crystal violet); format: cell-based; settings: Mus musculus, B16-F10, 96 h; B16F10, 4 days incubation; read-out: Inhibition of B16F10 cell proliferation IC50
Description: (§1) Cultivated tumour cells (HeLa, human cervical tumour cells, ATCC CCL-2; NCI-H460, human non-small cell lung carcinoma cells, ATCC HTB-177; A2780, human ovarian carcinoma cells, ECACC #93112519; DU 145, hormone-independent human prostate carcinoma cells, ATCC HTB-81; HeLa-MaTu-ADR, multidrug-resistant human cervical carcinoma cells, EPO-GmbH Berlin; Caco-2, human colorectal carcinoma cells, ATCC HTB-37; B16F10, mouse melanoma cells, ATCC CRL-6475) were plated at a density of 5,000 cells/well (DU145, HeLa-MaTu-ADR), 3,000 cells/well (NCI-H460, HeLa), 2,500 cells/well (A2780), 1,500 cells/well (Caco-2), or 1,000 cells/well (B16F10) in a 96-well multititer plate in 200 μL of their respective growth medium supplemented 10% fetal calf serum. After 24 hours, the cells of one plate (zero-point plate) were stained with crystal violet (see below), while the medium of the other plates was replaced by fresh culture medium (200 μl), to which the test substances were added in various concentrations (0 μM, as well as in the range of 0.001-10 μM; the final concentration of the solvent dimethyl sulfoxide was 0.5%). The cells were incubated for 4 days in the presence of test substances. Cell proliferation was determined by staining the cells with crystal violet: the cells were fixed by adding 20 μl/measuring point of an 11% glutaric aldehyde solution for 15 minutes at room temperature. After three washing cycles of the fixed cells with water, the plates were dried at room temperature. The cells were stained by adding 100 μl/measuring point of a 0.1% crystal violet solution (pH 3.0). After three washing cycles of the stained cells with water, the plates were dried at room temperature. The dye was dissolved by adding 100 μl/measuring point of a 10% acetic acid solution. The extinction was determined by photometry at a wavelength of 595 nm. The change of cell number, in percent, was calculated by normalization of the measured values to the extinction values of the zero-point plate (=0%) and the extinction of the untreated (0 μm) cells (=100%). The IC50 values (inhibitory concentration at 50% of maximal effect) were determined by means of a 4 parameter fit.

NCI-H460 cells = test: Proliferation assay NCI-H460 (Method 3, crystal violet); format: cell-based; settings: Homo sapiens, 96 h; NCI-H460, 4 days incubation; read-out: Inhibition of NCI-H460 cell proliferation IC50
Description: as §1

CDK9/CycT1 = target: T1, CDK9/CycT1 (Homo sapiens, UniProt P50750); test: CDK9/CycT1 high ATP kinase assay (Method 1b, TR-FRET); format: biochemical; settings: 2 mM ATP; for IC50: Method 1b; for Selectivity high ATP CDK9 over high ATP CDK2: IC50 (high ATP CDK2)/IC50 (high ATP CDK9): Methods 1b and 2b
T1 construct: Recombinant full-length His-tagged human CDK9 and CycT1; His; purchased Invitrogen PV4131; host or cells: insect cells
T1 sequence (P50750 whole entry): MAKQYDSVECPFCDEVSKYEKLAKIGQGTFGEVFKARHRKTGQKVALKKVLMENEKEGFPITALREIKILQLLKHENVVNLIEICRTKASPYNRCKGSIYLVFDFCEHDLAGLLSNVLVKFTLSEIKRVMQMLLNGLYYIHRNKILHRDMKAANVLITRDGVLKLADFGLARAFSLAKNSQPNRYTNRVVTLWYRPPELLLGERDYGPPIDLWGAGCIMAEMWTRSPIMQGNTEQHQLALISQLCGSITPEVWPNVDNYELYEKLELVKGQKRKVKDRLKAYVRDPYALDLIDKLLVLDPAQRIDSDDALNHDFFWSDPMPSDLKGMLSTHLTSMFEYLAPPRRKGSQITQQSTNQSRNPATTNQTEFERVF
T1 sequence (O60563 whole entry partner): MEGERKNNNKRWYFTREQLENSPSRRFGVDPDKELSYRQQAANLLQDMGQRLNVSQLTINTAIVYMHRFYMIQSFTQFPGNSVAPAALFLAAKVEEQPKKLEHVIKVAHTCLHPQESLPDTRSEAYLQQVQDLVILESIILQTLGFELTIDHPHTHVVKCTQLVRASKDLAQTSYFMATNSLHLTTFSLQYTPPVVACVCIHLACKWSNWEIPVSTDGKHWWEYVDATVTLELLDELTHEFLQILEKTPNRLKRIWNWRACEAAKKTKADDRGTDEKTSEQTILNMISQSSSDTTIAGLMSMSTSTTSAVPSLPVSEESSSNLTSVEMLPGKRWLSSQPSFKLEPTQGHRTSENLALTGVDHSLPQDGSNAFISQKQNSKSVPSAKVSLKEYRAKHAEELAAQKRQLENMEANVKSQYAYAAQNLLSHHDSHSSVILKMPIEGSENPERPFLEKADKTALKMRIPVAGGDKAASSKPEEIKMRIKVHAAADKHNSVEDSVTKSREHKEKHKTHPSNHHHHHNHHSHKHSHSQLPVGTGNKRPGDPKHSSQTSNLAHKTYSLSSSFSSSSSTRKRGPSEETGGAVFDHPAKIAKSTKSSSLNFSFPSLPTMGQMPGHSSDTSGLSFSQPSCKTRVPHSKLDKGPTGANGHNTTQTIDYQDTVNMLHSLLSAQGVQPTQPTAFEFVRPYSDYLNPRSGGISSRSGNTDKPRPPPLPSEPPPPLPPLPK
Description: 1b. CDK9/CycT1 High ATP Kinase Assay
CDK9/CycT1-inhibitory activity of compounds of the present invention at a high ATP concentration after preincubation of enzyme and test compounds was quantified employing the CDK9/CycT1 TR-FRET assay as described in the following paragraphs.
Recombinant full-length His-tagged human CDK9 and CycT1, expressed in insect cells and purified by Ni-NTA affinity chromatography, were purchase from Invitrogen (Cat. No PV4131). As substrate for the kinase reaction biotinylated peptide biotin-Ttds-YISPLKSPYKISEG (C-terminus in amid form) was used which can be purchased e.g. form the company JERINI peptide technologies (Berlin, Germany). For the assay 50 nl of a 100 fold concentrated solution of the test compound in DMSO was pipetted into a black low volume 384 well microtiter plate (Greiner Bio-One, Frickenhausen, Germany), 2 μl of a solution of CDK9/CycT1 in aqueous assay buffer [50 mM Tris/HCl pH 8.0, 10 mM MgCl2, 1.0 mM dithiothreitol, 0.1 mM sodium ortho-vanadate, 0.01% (v/v) Nonidet-P40 (Sigma)] were added and the mixture was incubated for 15 min at 22° C. to allow pre-binding of the test compounds to the enzyme before the start of the kinase reaction. Then the kinase reaction was started by the addition of 3 μl of a solution of adenosine-tri-phosphate (ATP, 3.3 mM=> final conc. in the 5 μl assay volume is 2 mM) and substrate (1.67 μM=> final conc. in the 5 μl assay volume is 1 μM) in assay buffer and the resulting mixture was incubated for a reaction time of 25 min at 22° C. The concentration of CDK9/CycT1 was adjusted depending of the activity of the enzyme lot and was chosen appropriate to have the assay in the linear range, typical concentrations were in the range of 0.5 μg/mL. The reaction was stopped by the addition of 5 μl of a solution of TR-FRET detection reagents (0.2 μM streptavidine-XL665 [Cisbio Bioassays, Codolet, France] and 1 nM anti-RB(pSer807/pSer811)-antibody from BD Pharmingen [#558389] and 1.2 nM LANCE EU-W1024 labeled anti-mouse IgG antibody [Perkin-Elmer, product no. AD0077]) in an aqueous EDTA-solution (100 mM EDTA, 0.2% (w/v) bovine serum albumin in 100 mM HEPES/NaOH pH 7.0).
The resulting mixture was incubated 1 h at 22° C. to allow the formation of complex between the phosphorylated biotinylated peptide and the detection reagents. Subsequently the amount of phosphorylated substrate was evaluated by measurement of the resonance energy transfer from the Euchelate to the streptavidine-XL. Therefore, the fluorescence emissions at 620 nm and 665 nm after excitation at 350 nm was measured in a HTRF reader, e.g. a Rubystar (BMG Labtechnologies, Offenburg, Germany) or a Viewlux (Perkin-Elmer). The ratio of the emissions at 665 nm and at […] was taken as the measure for the amount of phosphorylated substrate. The data were normalised (enzyme reaction without inhibitor=0% inhibition, all other assay components but no enzyme=100% inhibition).

DU145 cells = test: Proliferation assay DU145 (Method 3, crystal violet); format: cell-based; settings: Homo sapiens, DU-145, 96 h; DU145, 4 days incubation; read-out: Inhibition of DU145 cell proliferation IC50
Description: as §1, with “The IC50 values (inhibitory concentration at 50% of maximal effect) were determined by means of a 4 parameter fit.” left out

Row | SMILES | IC50 (B16F10 cells) [µM] | IC50 (NCI-H460 cells) [µM] | IC50 (CDK9/CycT1) [µM] | Selectivity high ATP CDK9 over high ATP CDK2: IC50 (high ATP CDK2)/IC50 (high ATP CDK9) (CDK9/CycT1) | IC50 (DU145 cells) [µM]
1 | CS(=O)(=O)Cc1cccc(Nc2ncc(F)c(-c3ccc(F)c4ccoc34)n2)c1 [Example 1, 5-Fluoro-4-(4-fluoro-1-benzofuran-7-yl)-N-{3-[(methylsulfonyl)methyl]-phenyl}pyrimidin-2-amine] | 0.39 | 0.33 | 0.009 | 147 | 0.36
2 | CCS(=O)(=O)Cc1cccc(Nc2ncc(F)c(-c3ccc(F)c4ccoc34)n2)c1 [Example 2, N-{3-[(Ethylsulfonyl)methyl]phenyl}-5-fluoro-4-(4-fluoro-1-benzofuran-7-yl)pyrimidin-2-amine] | 0.1 | 0.114 | 0.009 | 102 | 
3 | CS(=O)(=O)Cc1cc(F)cc(Nc2ncc(F)c(-c3ccc(F)c4ccoc34)n2)c1 [Example 3] | 0.245 | 0.23 | 0.002 |  | 0.298
4 | Cc1cc(CS(C)(=O)=O)cc(Nc2ncc(F)c(-c3ccc(F)c4ccoc34)n2)c1 [Example 4, 5-Fluoro-4-(4-fluoro-1-benzofuran-7-yl)-N-{3-methyl-5-[(methylsulfonyl)methyl]-phenyl}pyrimidin-2-amine] | 0.242 | 0.146 | 0.001 | 8560 | 0.237
